Values after ≈ are worked out from the molar mass of the structure shown. Values joined by “and” are separate entries in the source; they are usually repeats but may differ in a detail not shown here. Equal values may be shown once. Read-outs that look alike come from different tables or passages of the source.
Columns and labels:
P. carinii = assay: Pneumocystis ATP assay (ATP-lite M); type: cell-based, Pneumocystis carinii
P. murina = assay: Pneumocystis ATP assay (ATP-lite M); type: cell-based, Pneumocystis murina
Aspergillus terreus [1] = assay: microbe, parasite or virus in culture
Aspergillus terreus [2] = conditions: A. terreus; RPMI 1640 (0.2% Glucose); 1.00×10^5 cells/mL; 35° C.
Aspergillus spp. = assay: microbe, parasite or virus in culture
Aspergillus fumigatus [3] = assay: microbe, parasite or virus in culture
Aspergillus fumigatus [4] = assay: Checkerboard microdilution synergy (FIC); type: cell-based; conditions: for MIC: Aspergillus fumigatus; for MIC azole combination: POS in combination with MM:TM
Rhizopus arrhizus = assay: MIC100 against filamentous fungi (CLSI M38-A2); type: cell-based; conditions: for polymer efficacy against filamentous fungi, 100%: Clinical isolate
P. marneffei mold = assay: MIC by broth microdilution (EUCAST-AST-[…]); type: cell-based; conditions: 1.00×10^5 cells/mL, 35° C.
B. dermatitidis = assay: MIC80 against dimorphic fungi (CLSI M38-A2); type: cell-based; conditions: Blastomyces dermatitidis
Aspergillus fumigatus [5] = system: Aspergillus fumigatus
Scedosporium prolificans = assay: MIC100 against filamentous fungi (CLSI M38-A2); type: cell-based
Fusarium oxysporum = assay: MIC100 against filamentous fungi (CLSI M38-A2); type: cell-based; conditions: for polymer efficacy against filamentous fungi, 100%: Clinical isolate; for MIC: Fusarium oxysporum
H. capsulatum = assay: microbe, parasite or virus in culture; type: cell-based; conditions: Histoplasma capsulatum
[6] = system: Scedosporium apoiospermum; assay: MIC100 against filamentous fungi (CLSI M38-A2); type: cell-based; conditions: for polymer efficacy against filamentous fungi, 100%: Clinical isolate
Paecilomyces variotii = assay: MIC100 against filamentous fungi (CLSI M38-A2); type: cell-based
Coccidioides spps. = assay: microbe, parasite or virus in culture; type: cell-based
[7] = MM:TM with posaconazole, isolate CEA10 (Sensitive), […] 10^5 cells/mL
[8] = MM:TM with posaconazole, isolate F11628 (Resistance), […] 10^5 cells/mL
[9] = MM:TM with posaconazole, isolate F16216 (Resistance), […] 10^5 cells/mL

CC1(C)S[C@@H]2[C@H](NC(=O)[C@H](N)c3ccccc3)C(=O)N2[C@H]1C(=O)O [Ampicillin]
P. carinii % reduction in ATP/vehicle control (P. carinii; 10 ug/mL, 24 hour): 12.28%
P. carinii % reduction in ATP/vehicle control (P. carinii; 10 ug/mL, 48 hr): 0%
P. carinii % reduction in ATP/vehicle control (P. carinii; 10 ug/mL, 72 hr): 2.65%
P. murina % reduction in ATP/vehicle control (P. murina; 10 ug/mL, 24 hour): 0%
P. murina % reduction in ATP/vehicle control (P. murina; 10 ug/mL, 48 hr): 0.9%
P. murina % reduction in ATP/vehicle control (P. murina; 10 ug/mL, 72 hr): 0%

N=C(N)c1ccc(OCCCCCOc2ccc(C(=N)N)cc2)cc1 [Pentamidine]
P. carinii % reduction in ATP/vehicle control (P. carinii; 1 ug/mL, 24 hour): 86.79%
P. carinii % reduction in ATP/vehicle control (P. carinii; 1 ug/mL, 48 hr): 87.62%
P. carinii % reduction in ATP/vehicle control (P. carinii; 1 ug/mL, 72 hr): 95.23%
P. murina % reduction in ATP/vehicle control (P. murina; 1 ug/mL, 24 hour): 90.80%
P. murina % reduction in ATP/vehicle control (P. murina; 1 ug/mL, 48 hr): 84.39%
P. murina % reduction in ATP/vehicle control (P. murina; 1 ug/mL, 72 hr): 91.86%

CC[C@@H]([C@H](C)O)n1ncn(-c2ccc(N3CCN(c4ccc(OC[C@@H]5CO[C@@](Cn6cncn6)(c6ccc(F)cc6F)C5)cc4)CC3)cc2)c1=O [Posaconazole, posaconazole]
MIC (Aspergillus terreus [1]): 1.4 µM and 1 µg/mL
MIC (Aspergillus terreus [1]; 48 h): 1 µg/mL and 1.4 µM
MIC (Aspergillus terreus [2]): 1.0 µg/mL (≈ 1.43 µM)
MIC (Aspergillus spp.): ~1 µM (≈ 0.701 µg/mL)
MIC (Aspergillus fumigatus [3]; 48 h, A. fumigatus AF293, visually, 1 × 10^5 cells/mL, 35° C.): 2 µg/mL and 2.9 µM
MIC (Aspergillus fumigatus [3]; 48 h, A. fumigatus CEA10, visually, 1 × 10^5 cells/mL, 35° C.): 0.5 µg/mL and 0.7 µM
MIC (Aspergillus fumigatus [3]; 48 h, A. fumigatus F11628, visually, 1 × 10^5 cells/mL, 35° C.): > 32 µg/mL and > 45.7 µM
MIC (Aspergillus fumigatus [3]; 48 h, A. fumigatus F16216, visually, 1 × 10^5 cells/mL, 35° C.): 1.7 µg/mL and 2.5 µM
MIC (Aspergillus fumigatus [3]; A. fumigatus AF293): 2.9 µM
MIC (Aspergillus fumigatus [3]; A. fumigatus AF293, RPMI 1640 (0.2% Glucose), 1.00×10^5 cells/mL, 35° C.): 2 µg/mL
MIC (Aspergillus fumigatus [3]; A. fumigatus AF293, RPMI 1640 (2% Glucose), 1.00×10^5 cells/mL, 35° C.): 1 µg/mL
MIC (Aspergillus fumigatus [3]; A. fumigatus CEA10): 0.7 µM
MIC (Aspergillus fumigatus [3]; A. fumigatus CEA10, RPMI 1640 (0.2% Glucose), 1.00×10^5 cells/mL, 35° C.): 0.5 µg/mL
MIC (Aspergillus fumigatus [3]; A. fumigatus CEA10, RPMI 1640 (2% Glucose), 1.00×10^5 cells/mL, 35° C.): 0.5 µg/mL
MIC (Aspergillus fumigatus [3]; A. fumigatus F11628): > 45.6 µM
MIC (Aspergillus fumigatus [3]; A. fumigatus F11628, RPMI 1640 (0.2% Glucose), 1.00×10^5 cells/mL, 35° C.): > 32 µg/mL
MIC (Aspergillus fumigatus [3]; A. fumigatus F11628, RPMI 1640 (2% Glucose), 1.00×10^5 cells/mL, 35° C.): > 32 µg/mL
MIC (Aspergillus fumigatus [3]; A. fumigatus F16216): 2.5 µM
MIC (Aspergillus fumigatus [3]; azole resistant strain F11628): > 45 µM
MIC (Aspergillus fumigatus [3]; strain F16216): 2.5 µM
FICazole (Aspergillus fumigatus [4]; 08-12-12-13 Cyp51 [TR34/L98H], POS with MM:TM): 1.000
FICazole (Aspergillus fumigatus [4]; 08-31-08-91 Cyp51 [TR34/L98H], POS with MM:TM, listed as POS): 0.500 and 0.250
FICazole (Aspergillus fumigatus [4]; 08-36-03-25 Cyp51 [TR34/L98H], POS with MM:TM, listed as POS): 0.500 and 0.474
FICazole (Aspergillus fumigatus [4]; 12-7505220 Cyp51 [TR34/L98H], POS with MM:TM, listed as POS): 0.240 and 0.263
FICazole (Aspergillus fumigatus [4]; AF293, POS with MM:TM): 0.21
FICazole (Aspergillus fumigatus [4]; AF293, POS with MM:TM, listed as POS): 0.25
MIC (Aspergillus fumigatus [4]; 48 h, CEA10, MM:TM with Posaconazole, single agent, 48 h, read-out: MIC Alone): 0.7 µM
MIC (Aspergillus fumigatus [4]; 48 h, CEA10, POS as single agent, 35° C.): 0.75 µg/mL
MIC (Aspergillus fumigatus [4]; 48 h, F11628, POS as single agent, 35° C.): 48 µg/mL and 68.5 µM
MIC (Aspergillus fumigatus [4]; 48 h, F16216, POS as single agent, 35° C.): 2 µg/mL and 2.85 µM
MIC (Aspergillus fumigatus [4]; [7]): 0.5 µg/mL
MIC (Aspergillus fumigatus [4]; [8]): 48 µg/mL
MIC (Aspergillus fumigatus [4]; [9]): 1.75 µg/mL
MIC Combined (Aspergillus fumigatus [4]; CEA10, MM:TM with Posaconazole in combination, 48 h): 0.1 µM
MIC azole combination (Aspergillus fumigatus [4]; CEA10, 48 h, 35° C., listed as POS): 0.13 μg/mL and 0.19 μM
FICazole (Aspergillus fumigatus [4]; CEA10, POS with MM:TM, listed as POS): 0.173 and 0.250 and 0.200
FICazole (Aspergillus fumigatus [4]; D5 Cyp51 [G54E], POS with MM:TM, listed as POS): 0.125 and 0.063
FICazole (Aspergillus fumigatus [4]; D7 Cyp51 [WT], POS with MM:TM): 0.263
MIC azole combination (Aspergillus fumigatus [4]; F11628, 48 h, 35° C.): 0.13 µM
FICazole (Aspergillus fumigatus [4]; F11628, POS with MM:TM, listed as POS): 0.002 and 0.001
MIC azole combination (Aspergillus fumigatus [4]; F16216, 48 h, 35° C.): 2.14 µM
FICazole (Aspergillus fumigatus [4]; [7]): 0.200
FICazole (Aspergillus fumigatus [4]; [8]): 0.001
FICazole (Aspergillus fumigatus [4]; [9]): 0.571
increase in efficacy in the presence of MM:TM (Aspergillus fumigatus [4]; azole-resistant strain F11628): > 600 fold
polymer efficacy against filamentous fungi, 100% (Rhizopus arrhizus; R. arrhizus RA1, Nose Tissue): 0.5
polymer efficacy against filamentous fungi, 100% (Rhizopus arrhizus; R. arrhizus RA2, Tissue Upper Extremity): 0.5
polymer efficacy against filamentous fungi, 100% (Rhizopus arrhizus; R. arrhizus RA3, Palate Tissue): 0.5
MIC (Rhizopus arrhizus; Rhizopus arrhizus isolate RA1): 0.5 µg/mL (≈ 0.713 µM)
MIC100 (Rhizopus arrhizus; Rhizopus arrhizus isolate RA2): 0.5 µg/mL (≈ 0.713 µM)
MIC100 (Rhizopus arrhizus; Rhizopus arrhizus isolate RA3): 0.5 µg/mL (≈ 0.713 µM)
MIC (P. marneffei mold; RPMI 1640 (0.2% Glucose)): 0.5 µg/mL (≈ 0.713 µM)
MIC (P. marneffei mold; Talaromyces marneffei, RPMI 1640 (2% Glucose), read-out: MIC): 0.5 µg/mL (≈ 0.713 µM)

C[C@@H](c1ncncc1F)[C@](O)(Cn1cncn1)c1ccc(F)cc1F [VOR, voriconazole]
MIC80 (B. dermatitidis; Blastomyces dermatitidis isolate BD1): ≤ 0.03 µg/mL
MIC80 (B. dermatitidis; Blastomyces dermatitidis isolate BD3): 0.5 µg/mL (≈ 1.43 µM)
polymer efficacy against filamentous fungi, 100% (Aspergillus fumigatus [5]; A. fumigatus AF1, AF293, Lung): 1
polymer efficacy against filamentous fungi, 100% (Aspergillus fumigatus [5]; A. fumigatus AF2, Clinical isolate, Azole resistant): 1
polymer efficacy against filamentous fungi, 100% (Aspergillus fumigatus [5]; A. fumigatus AF3, Clinical isolate, Azole susceptible): 0.25
polymer efficacy against filamentous fungi, 100% (Scedosporium prolificans; L. prolificans LP1, Chest Wound, Clinical isolate): >16
MIC (Scedosporium prolificans; Lomentospora prolificans, S. prolificans): > 16 µg/mL
MIC100 (Scedosporium prolificans; Scedosporium prolificans isolate LP1): >16 µg/mL
polymer efficacy against filamentous fungi, 100% (Fusarium oxysporum; F. oxysporum FO1, Blood): 4
polymer efficacy against filamentous fungi, 100% (Fusarium oxysporum; F. oxysporum FO2, Bone): 4
polymer efficacy against filamentous fungi, 100% (Fusarium oxysporum; F. oxysporum FO3, Blood): >16
MIC (Fusarium oxysporum; Fusarium oxysporum isolate FO1): 4 µg/mL (≈ 11.5 µM)
MIC (Fusarium oxysporum; Fusarium oxysporum isolate FO2): 4 µg/mL (≈ 11.5 µM)
MIC (Fusarium oxysporum; Fusarium oxysporum isolate FO3): > 16 µg/mL
MIC80 (H. capsulatum; Histoplasma capsulatum isolate HC1): ≤ 0.03 µg/mL
MIC80 (H. capsulatum; Histoplasma capsulatum isolate HC2): 0.25 µg/mL (≈ 0.716 µM)
MIC80 (H. capsulatum; Histoplasma capsulatum isolate HC3): 0.125 µg/mL (≈ 0.358 µM)
MIC80 (H. capsulatum; Histoplasma capsulatum isolate HC4): 0.06 µg/mL (≈ 0.172 µM)
MIC80 (H. capsulatum; Histoplasma capsulatum isolate HC5): 0.25 µg/mL (≈ 0.716 µM)
MIC80 (H. capsulatum; Histoplasma capsulatum isolate HC6): 0.125 µg/mL (≈ 0.358 µM)
MIC80 (H. capsulatum; Histoplasma capsulatum isolate HC7): 0.5 µg/mL (≈ 1.43 µM)
MIC80 (H. capsulatum; Histoplasma capsulatum isolate HC8): 0.25 µg/mL (≈ 0.716 µM)
MIC80 (H. capsulatum; Histoplasma capsulatum isolate HC9): 0.06 µg/mL (≈ 0.172 µM)
MIC80 (H. capsulatum; Histoplasma capsulatum isolate HC10): 0.06 µg/mL (≈ 0.172 µM)
polymer efficacy against filamentous fungi, 100% ([6]; S. apiopsermum SA1, Toe): 1
polymer efficacy against filamentous fungi, 100% ([6]; S. apiopsermum SA2, Elbow Tissue): 1
MIC ([6]; Scedosporium apiopsermum isolate SA1): 1 µg/mL (≈ 2.86 µM)
MIC100 ([6]; Scedosporium apiopsermum isolate SA2): 1 µg/mL (≈ 2.86 µM)
polymer efficacy against filamentous fungi, 100% (Paecilomyces variotii; P. variotii QC, CLSI QC isolate for susceptibility testing): 0.125
MIC (Paecilomyces variotii; Paecilomyces variotii, read-out: MIC100): 0.125 µg/mL (≈ 0.358 µM)
MIC80 (Coccidioides spps.; Coccidioides sp. isolate Cocci 1): 0.25 µg/mL (≈ 0.716 µM)
MIC80 (Coccidioides spps.; Coccidioides sp. isolate Cocci 2): 0.125 µg/mL (≈ 0.358 µM)
MIC80 (Coccidioides spps.; Coccidioides sp. isolate Cocci 3): 0.06 µg/mL (≈ 0.172 µM)
MIC80 (Coccidioides spps.; Coccidioides sp. isolate Cocci 5): 0.125 µg/mL (≈ 0.358 µM)
MIC80 (Coccidioides spps.; Coccidioides sp. isolate Cocci 6): 0.25 µg/mL (≈ 0.716 µM)
MIC80 (Coccidioides spps.; Coccidioides sp. isolate Cocci 7): 0.125 µg/mL (≈ 0.358 µM)
MIC80 (Coccidioides spps.; Coccidioides sp. isolate Cocci 8): 0.125 µg/mL (≈ 0.358 µM)
MIC80 (Coccidioides spps.; Coccidioides sp. isolate Cocci 9): 1 µg/mL (≈ 2.86 µM)
MIC80 (Coccidioides spps.; Coccidioides sp. isolate Cocci 10): 0.06 µg/mL (≈ 0.172 µM)
